In patent publication US5776720A, “Assay reagent” (priority 1995, dated 1998):

How the values were obtained:
aminopeptidase = assay: effect of calcium chloride on aminopeptidase reaction with (H-L-Asp)2 rhodamine 110; format: biochemical; details: approximately 10 mM
Source text: The chemical nature of the buffer is important to the reactivity of the assay compound with the cellular enzymes. […] In addition, the assay compound hydrolysis by the enzyme occurs at an increased rate of reaction.

dipeptide reagent = assay: effect of added sodium chloride on dipeptide reagent; format: cell-based; details: addition of 7 mM, pH range 6.5 to 8.7
Source text: Inhibitors and poisons (or toxins) are components that can be added to reduce the activity of non-targeted enzymes that provide competing reactions for the leaving group. Inhibitors are usually very selective for a particular enzyme. For example, EDTA only works with enzymes requiring Ca^+2, Mg^+2 and some other metals. […] Preferred inhibitors for particular enzymes are included in Table 1.

SMILES	effect on aminopeptidase reaction with (H-L-Asp)2 rhodamine 110 (aminopeptidase)	effect on dipeptide reagent (dipeptide reagent)
[Ca+2].[Cl-].[Cl-] [calcium chloride]	inhibitory to the enzyme reaction	–
[Cl-].[Na+] [sodium chloride]	–	slightly inhibitory effect
